# Patent US5763469A, “Substituted cyclic ureas and derivatives thereof useful as retroviral protease inhibitors” (The DuPont Merck Pharmaceutical Company, priority 1996, dated 1998)
# Test system: HIV-1 (RF)
# Assay: HIV RNA assay: microplate based compound evaluation in HIV-1 infected MT-2 cells
# Type: cell-based
# Conditions: Human immunodeficiency virus 1, MT2, 72 h; HIV-1 (RF) infected MT-2 cells, 3 days of culture; virus dilutions were selected to give this value (standardisation of inoculum); read-out: IC90 value (concentration of compound required to reduce the HIV RNA level by 90%)
# Experimental: MT-2, CEM, and H9 cells were maintained in RPMI 1640 supplemented with 5% fetal calf serum (FCS), 2 mM L-glutamine and 50 μg/mL gentamycin, all from Gibco. Laboratory strains of HIV-1 (RF, MN and IIIB) were propagated in H9 cells in the same medium. Virus stocks were prepared approximately 1 month after acute infection of H9 cells by clarification of the tissue culture medium and storage of aliquots at -70° C. Infectious titers of HIV-1 (RF) stocks were 1-3×10^7 PFU (plaque forming units)/mL as measured by plaque assay on MT-2 cells (see below). Each aliquot of virus stock used for infection was thawed only once. […]
# Cell lysates or purified RNA in 3M or 5M GED were mixed with 5M GED and capture probe to a final guanidinium isothiocyanate concentration of 3M and a final biotin oligonucleotide concentration of 30 nM. […] Immobilized alkaline phosphatase activity was detected by addition of 100 μL of 0.2 mM 4-methylumbelliferyl phosphate (MUBP, JBL Scientific) in buffer δ(2.5M diethanolamine pH 8.9 (JBL Scientific), 10 mM MgCl2, 5 mM zinc acetate dihydrate and 5 mM N-hydroxyethyl-ethylene-diamine-triacetic acid). […] Fluorescence at […] was measured using a microplate fluorometer (Dynateck) exciting at 365 nm.
# Compounds to be evaluated were dissolved in DMSO and diluted in culture medium to twice the highest concentration to be tested and a maximum DMSO concentration of 2%. […]
compound,measurement,value
"Nc1ccn([C@H]2CC[C@@H](CO)O2)c(=O)n1 [ddC, dideoxycytidine]",IC90,0.2 µg/mL
